Data taken from EP4810052A2, “HCRHR2 SELECTIVE POLYPEPTIDES” (Gubra A/S, priority 2023, dated 2026).
Read-outs that look alike come from different tables or passages of the source. Starred links: 1 amine or outer side, 2 acyl side, 3 side chain; linkers in the order of their positions; H or OH if unused. Non-standard residues stand in square brackets, D forms with d. Residues, ends and D or L forms follow the SMILES beside them. Groups on a side chain read outwards from the residue. *: point of attachment. C20 diacid = O=C(O)CCCCCCCCCCCCCCCCCCC(=O)*; γGlu = O=C(O)[C@H](CCC(=O)[*:2])N[*:1]; NMeI = CC[C@H](C)[C@H](NC)C(=O)O; Nle = CCCC[C@H](N)C(=O)O; AEEA = NCCOCCOCC(=O)O; Aib = CC(C)(N)C(=O)O

Legend:
hCRHR1 = molecular target: T1, hCRHR1 (Homo sapiens, UniProt P34998); experiment: HTRF cAMP assay, determination of hCRHR1 potency (peptide libraries 5 conc., purified peptides 11 conc.); format: cell-based
T1 sequence (P34998 24-415): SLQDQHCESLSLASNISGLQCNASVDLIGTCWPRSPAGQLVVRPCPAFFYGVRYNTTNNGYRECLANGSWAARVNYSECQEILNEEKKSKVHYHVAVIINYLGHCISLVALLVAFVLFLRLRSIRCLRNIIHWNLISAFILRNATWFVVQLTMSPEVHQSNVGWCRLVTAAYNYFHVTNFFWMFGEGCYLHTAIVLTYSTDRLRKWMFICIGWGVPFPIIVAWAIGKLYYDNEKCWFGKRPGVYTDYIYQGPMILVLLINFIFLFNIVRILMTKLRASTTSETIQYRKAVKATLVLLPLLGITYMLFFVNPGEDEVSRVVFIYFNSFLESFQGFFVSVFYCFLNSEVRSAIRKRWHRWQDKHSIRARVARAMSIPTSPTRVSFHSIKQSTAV
Outline: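 Cellular cAMP was read by time-resolved FRET between d2-labelled cAMP and cryptate anti-cAMP antibody. The cells were freshly thawed suspension CHO-K1 cells stably expressing human CRHR1.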

hCRHR2 = molecular target: T2, hCRHR2 (Homo sapiens, UniProt Q13324); experiment: HTRF cAMP assay, determination of hCRHR2 potency (peptide libraries 5 conc., purified peptides 11 conc.); format: cell-based
T2 sequence (Q13324 1-411): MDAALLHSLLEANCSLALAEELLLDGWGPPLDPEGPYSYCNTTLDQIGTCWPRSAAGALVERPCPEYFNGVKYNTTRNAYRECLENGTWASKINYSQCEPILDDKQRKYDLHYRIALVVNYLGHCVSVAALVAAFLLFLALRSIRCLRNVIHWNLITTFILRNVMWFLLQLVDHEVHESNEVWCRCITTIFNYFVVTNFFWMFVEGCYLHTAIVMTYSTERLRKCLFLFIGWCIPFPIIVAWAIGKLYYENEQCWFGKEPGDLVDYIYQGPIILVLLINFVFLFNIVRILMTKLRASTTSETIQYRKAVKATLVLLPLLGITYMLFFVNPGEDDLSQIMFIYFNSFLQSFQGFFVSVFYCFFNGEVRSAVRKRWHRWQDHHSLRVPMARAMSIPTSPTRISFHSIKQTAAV
Outline: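 Cells: CHO-K1/hCRHR2 stable clone, suspension, freshly thawed. Readout: competitive TR-FRET, anti-cAMP cryptate vs cAMP-d2. Analysis: sigmoid variable-slope nonlinear regression → EC50.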

[1] = Thioflavin T fibril formation assay of purified peptides; format: physicochemical; design: key: Amyloid fibril formation detected by an increase in ThT fluorescence was denoted with "Yes"; samples without increasing ThT fluorescence hence not forming amyloid fibrils were denoted "No"
Outline: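 Fibril formation read as rising ThT emission at 480 nm (450 nm excitation), 4 µM ThT, over 96 h at 40°C with alternating 5-min rest and 700 rpm shaking cycles, in triplicate. Samples were 200 µM compound in 50 mM phosphate at various pH values, or co-formulated at 200 µM in semaglutide product at pH 7.4.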

[2] = purified peptides, CHO-K1 cells stably expressing hCRHR1, cAMP HTRF, read-out: hCRHR1 EC50
[3] = purified peptides, CHO-K1 cells stably expressing hCRHR2, cAMP HTRF, read-out: hCRHR2 EC50
[4] = Table 5, purified peptides, read-out: hCRHR1 EC50
[5] = Table 5, purified peptides, read-out: hCRHR2 EC50

SMILES | EC50 (hCRHR1; [2]) [nM] | Selectivity ratio (hCRHR1/ hCRHR2) (hCRHR2; hCRHR1-EC50/hCRHR2-EC50) | EC50 (hCRHR2; [3]) [nM] | Fibrillation (pH 7.5) ([1]; pH 7.5, ThT assay) | EC50 (hCRHR1; stable cell system, Table 10, read-out: Stable EC50 (nM) hCRHR 1) [nM] | EC50 (hCRHR2; stable cell system, Table 10, read-out: Stable EC50 (nM) hCRHR 2a) [nM] | Amyloid fibril formation + semaglutide (Ozempic®), pH 7.4 ([1]; 200 µM compound dissolved in semaglutide drug product, pH 7.4, listed as None = drug product alone) | Amyloid fibril formation pH 7.0 ([1]; 200 µM in 50 mM phosphate buffer, pH 7.0) | Amyloid fibril formation pH 7.5 ([1]; 200 µM in 50 mM phosphate buffer, pH 7.5) | Amyloid fibril formation pH 8.0 ([1]; 200 µM in 50 mM phosphate buffer, pH 8.0) | EC50 (hCRHR1; [4]) [nM] | Selectivity ratio (hCRHR1/ hCRHR2) (hCRHR2; Table 5) | EC50 (hCRHR2; [5]) [nM] | Fibrillation (pH 7.5) ([1]; pH 7.5) | EC50 (hCRHR1; Table 4, library peptides having X^38 = Nle, read-out: hCRHR1 pEC50 (converted)) [nM] | EC50 (hCRHR2; Table 4, library peptides having X^38 = Nle, read-out: hCRHR2 pEC50 (converted)) [nM]
CC[C@H](C)[C@H](NC)C(=O)N[C@H](C(=O)N[C@@H](CC(C)C)C(=O)N[C@@H](CO)C(=O)N[C@@H](CC(C)C)C(=O)N[C@@H](CC(=O)O)C(=O)N[C@H](C(=O)N1CCC[C@H]1C(=O)N[C@H](C(=O)NCC(=O)N[C@@H](CC(C)C)C(=O)N[C@@H](CC(C)C)C(=O)N[C@@H](CCC(N)=O)C(=O)N[C@H](C(=O)N[C@@H](CC(C)C)C(=O)N[C@@H](CC(C)C)C(=O)N[C@@H](CCC(=O)O)C(=O)N[C@@H](CCC(N)=O)C(=O)N[C@@H](C)C(=O)N[C@@H](CCCNC(=N)N)C(=O)N[C@@H](C)C(=O)N[C@@H](CCCNC(=N)N)C(=O)N[C@@H](C)C(=O)N[C@@H](C)C(=O)N[C@@H](CCCNC(=N)N)C(=O)N[C@@H](CCC(=O)O)C(=O)N[C@@H](CCC(N)=O)C(=O)N[C@@H](C)C(=O)N[C@@H](CCCCNC(=O)COCCOCCNC(=O)COCCOCCNC(=O)CC[C@H](NC(=O)CC[C@H](NC(=O)CCCCCCCCCCCCCCCCCCC(=O)O)C(=O)O)C(=O)O)C(=O)N[C@H](C(=O)N[C@@H](CC(N)=O)C(=O)N[C@@H](C)C(=O)N[C@@H](CCC(=O)O)C(=O)N[C@H](C(=O)N[C@@H](CC(C)C)C(=O)N[C@@H](C)C(=O)N[C@@H](CCC(=O)O)C(=O)N[C@H](C(N)=O)C(C)C)[C@@H](C)CC)[C@@H](C)O)[C@@H](C)CC)[C@@H](C)CC)C(C)C)C(C)C [SEQ ID NO: 5] (H-[NMeI]VLSLDVPIGLLQILLEQARARAAREQAK([AEEA-AEEA-γGlu-γGlu-C20 diacid])TNAEILAEV-NH2) | > 5000 | >4167 | 1.2 | No | – | – | – | – | – | – | – | – | – | – | – | –
CC[C@H](C)[C@H](NC)C(=O)N[C@H](C(=O)N[C@@H](CC(C)C)C(=O)N[C@@H](CO)C(=O)N[C@@H](CC(C)C)C(=O)N[C@@H](CC(=O)O)C(=O)N[C@H](C(=O)N1CCC[C@H]1C(=O)N[C@H](C(=O)NCC(=O)N[C@@H](CC(C)C)C(=O)N[C@@H](CC(C)C)C(=O)N[C@@H](CCC(N)=O)C(=O)N[C@H](C(=O)N[C@@H](CC(C)C)C(=O)N[C@@H](CC(C)C)C(=O)N[C@@H](CCC(=O)O)C(=O)N[C@@H](CCC(N)=O)C(=O)N[C@@H](C)C(=O)N[C@@H](CCCNC(=N)N)C(=O)N[C@@H](C)C(=O)N[C@@H](CCCNC(=N)N)C(=O)N[C@@H](C)C(=O)N[C@@H](C)C(=O)N[C@@H](CCCNC(=N)N)C(=O)N[C@@H](CCC(=O)O)C(=O)N[C@@H](CCC(N)=O)C(=O)N[C@@H](C)C(=O)N[C@H](C(=O)N[C@@H](CCCCNC(=O)COCCOCCNC(=O)COCCOCCNC(=O)CC[C@H](NC(=O)CC[C@H](NC(=O)CCCCCCCCCCCCCCCCCCC(=O)O)C(=O)O)C(=O)O)C(=O)N[C@@H](CC(N)=O)C(=O)N[C@@H](C)C(=O)N[C@@H](CCC(=O)O)C(=O)N[C@H](C(=O)N[C@@H](CC(C)C)C(=O)N[C@@H](C)C(=O)N[C@@H](CCC(=O)O)C(=O)N[C@H](C(N)=O)C(C)C)[C@@H](C)CC)[C@@H](C)O)[C@@H](C)CC)[C@@H](C)CC)C(C)C)C(C)C [SEQ ID NO: 6] (H-[NMeI]VLSLDVPIGLLQILLEQARARAAREQATK([AEEA-AEEA-γGlu-γGlu-C20 diacid])NAEILAEV-NH2) | > 5000 | >1852 | 2.7 | No | > 5000 | 3 | No | No | No | No | – | – | – | – | – | –
CCCC[C@H](NC(=O)[C@@H](NC(=O)[C@H](CCC(=O)O)NC(=O)[C@H](C)NC(=O)[C@H](CC(N)=O)NC(=O)[C@H](CCC(=O)O)NC(=O)[C@H](CCCCNC(=O)COCCOCCNC(=O)COCCOCCNC(=O)CC[C@H](NC(=O)CC[C@H](NC(=O)CCCCCCCCCCCCCCCCCCC(=O)O)C(=O)O)C(=O)O)NC(=O)[C@H](C)NC(=O)[C@H](CCC(N)=O)NC(=O)[C@H](CCC(=O)O)NC(=O)[C@H](CCCNC(=N)N)NC(=O)[C@H](C)NC(=O)[C@H](C)NC(=O)[C@H](CCCNC(=N)N)NC(=O)[C@H](C)NC(=O)[C@H](CCCNC(=N)N)NC(=O)[C@H](C)NC(=O)[C@H](CCC(N)=O)NC(=O)[C@H](CO)NC(=O)[C@H](CC(C)C)NC(=O)[C@H](CC(C)C)NC(=O)[C@@H](NC(=O)[C@H](CCC(N)=O)NC(=O)[C@H](CC(C)C)NC(=O)[C@H](CC(C)C)NC(=O)CNC(=O)[C@@H](NC(=O)[C@@H]1CCCN1C(=O)[C@@H](NC(=O)[C@H](CC(=O)O)NC(=O)[C@H](CC(C)C)NC(=O)[C@H](CO)NC(=O)[C@H](CC(C)C)NC(=O)[C@@H](NC(=O)[C@@H](NC)[C@@H](C)CC)C(C)C)C(C)C)[C@@H](C)CC)[C@@H](C)CC)[C@@H](C)CC)C(=O)N[C@@H](C)C(=O)N[C@@H](CCC(=O)O)C(=O)N[C@H](C(N)=O)C(C)C [compound 101] (H-[NMeI]VLSLDVPIGLLQILLSQARARAAREQAK([AEEA-AEEA-γGlu-γGlu-C20 diacid])ENAEI[Nle]AEV-NH2) | – | – | – | – | – | – | – | – | – | – | > 5000 | 5435 | 0.92 | No | – | –
CCCC[C@H](NC(=O)[C@@H](NC(=O)[C@H](CCC(=O)O)NC(=O)[C@H](C)NC(=O)[C@H](CC(N)=O)NC(=O)C(C)(C)NC(=O)[C@H](CCCCNC(=O)COCCOCCNC(=O)COCCOCCNC(=O)CC[C@H](NC(=O)CC[C@H](NC(=O)CCCCCCCCCCCCCCCCCCC(=O)O)C(=O)O)C(=O)O)NC(=O)[C@H](C)NC(=O)[C@H](CCC(N)=O)NC(=O)[C@H](CCC(=O)O)NC(=O)[C@H](CCCNC(=N)N)NC(=O)[C@H](C)NC(=O)[C@H](C)NC(=O)[C@H](CCCNC(=N)N)NC(=O)[C@H](C)NC(=O)[C@H](CCCNC(=N)N)NC(=O)[C@H](C)NC(=O)[C@H](CCC(N)=O)NC(=O)[C@H](CO)NC(=O)[C@H](CC(C)C)NC(=O)[C@H](CC(C)C)NC(=O)[C@@H](NC(=O)[C@H](CCC(N)=O)NC(=O)[C@H](CC(C)C)NC(=O)[C@H](CC(C)C)NC(=O)CNC(=O)[C@@H](NC(=O)[C@@H]1CCCN1C(=O)[C@@H](NC(=O)[C@H](CC(=O)O)NC(=O)[C@H](CC(C)C)NC(=O)[C@H](CO)NC(=O)[C@H](CC(C)C)NC(=O)[C@@H](NC(=O)[C@@H](NC)[C@@H](C)CC)C(C)C)C(C)C)[C@@H](C)CC)[C@@H](C)CC)[C@@H](C)CC)C(=O)N[C@@H](C)C(=O)N[C@@H](CCC(=O)O)C(=O)N[C@H](C(N)=O)C(C)C [compound 132] (H-[NMeI]VLSLDVPIGLLQILLSQARARAAREQAK([AEEA-AEEA-γGlu-γGlu-C20 diacid])[Aib]NAEI[Nle]AEV-NH2) | – | – | – | – | – | – | – | – | – | – | > 5000 | >6494 | 0.77 | No | 794 | 0.02
